In the assay the test system is BDF1 mice, Adenocarcinoma 755 s.c., tumor weight T/C. Briefly: NCI In Vivo Anticancer Drug Screen. Data for tumor model Adenocarcinoma 755 (subcutaneous) in B6D2F1 (BDF1) mice. The conditions noted are these: endpoint: mean tumor weight, higher = larger tumour. An outline of the steps:
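Transplantable tumor implanted; mice dosed with compound or vehicle; survival or tumor size recorded; ratio of treated to vehicle control reported.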

Setting [1] is: dose: 30.0 mg/kg/injection, schedule: Q01DX011 (ip), vehicle: carboxymethylcellulose (CMC).
Where [2] appears, read: dose: 60.0 mg/kg/injection, schedule: Q01DX011 (ip), vehicle: carboxymethylcellulose (CMC).

Molecules are shown by their SMILES. “And” between values parts separate entries of the source, which are not always exact repeats. Equal values may be shown once.

In general, T/C refers to the ratio of treated to control. Turning to `Nc1nc(SCc2cccc([N+](=O)[O-])c2)c2[nH]cnc2n1`, the T/C was 41 % of control (dose: 37.5 mg/kg/injection, schedule: Q01DX011 (ip), vehicle: methylcellulose (MC)); 8 % of control (dose: 75.0 mg/kg/injection, schedule: Q01DX011 (ip), vehicle: methylcellulose (MC)); 3 % of control (dose: 150.0 mg/kg/injection, schedule: Q01DX011 (ip), vehicle: methylcellulose (MC)); 1 % of control (dose: 300.0 mg/kg/injection, schedule: Q01DX011 (ip), vehicle: methylcellulose (MC)).
Regarding `O=c1[nH]c(=O)n(C2CC(O)C(CO)O2)cc1F` (centres undefined), the T/C is, setting by setting: (dose: 13.12 mg/kg/injection, schedule: Q01DX011 (ip), vehicle: carboxymethylcellulose (CMC)) 124 % of control; (dose: 15.0 mg/kg/injection, schedule: Q01DX011 (ip), vehicle: carboxymethylcellulose (CMC)) 72 % of control; (dose: 19.0 mg/kg/injection, schedule: Q01DX011 (ip), vehicle: other) 66 % of control; (dose: 25.0 mg/kg/injection, schedule: Q01DX011 (ip), vehicle: methylcellulose (MC)) 54 % of control; (dose: 26.25 mg/kg/injection, schedule: Q01DX011 (ip), vehicle: carboxymethylcellulose (CMC)) 68 % of control; (dose: 30.0 mg/kg/injection, schedule: Q01DX006 (ip), vehicle: other) 80 % of control. The T/C is 37 % of control under setting [1]; 28 % of control (dose: 37.5 mg/kg/injection, schedule: Q01DX011 (ip), vehicle: other); 25 % of control (dose: 50.0 mg/kg/injection, schedule: Q01DX011 (ip), vehicle: methylcellulose (MC)); 59 % of control (dose: 52.5 mg/kg/injection, schedule: Q01DX011 (ip), vehicle: carboxymethylcellulose (CMC)); 37 % of control (dose: 60.0 mg/kg/injection, schedule: Q01DX006 (ip), vehicle: other); 14 % of control under setting [2]. Besides, the T/C (dose: 75.0 mg/kg/injection, schedule: Q01DX011 (ip), vehicle: other) was 3 % of control; the T/C (dose: 100.0 mg/kg/injection, schedule: Q01DX011 (ip), vehicle: methylcellulose (MC)) was 6 % of control; the T/C (dose: 105.0 mg/kg/injection, schedule: Q01DX011 (ip), vehicle: carboxymethylcellulose (CMC)) was 54 % of control; the T/C (dose: 120.0 mg/kg/injection, schedule: Q01DX006 (ip), vehicle: other) is 29 % of control; the T/C (dose: 121.0 mg/kg/injection, schedule: Q01DX011 (ip), vehicle: carboxymethylcellulose (CMC)) was 3 % of control; the T/C (dose: 240.0 mg/kg/injection, schedule: Q01DX006 (ip), vehicle: other) is 6 % of control. The T/C (dose: 480.0 mg/kg/injection, schedule: Q01DX006 (ip), vehicle: other) is 2 % of control.
Consider `CC1(C)C(=O)CC[C@@]2(C)C1=CC[C@@H]1[C@@H]2CC[C@@]2(C)[C@H]1CC[C@]2(C)O`, for which the T/C (dose: 25.0 mg/kg/injection, schedule: Q01DX011 (sc), vehicle: steriod suspending solution) is 105 % of control; the T/C (dose: 200.0 mg/kg/injection, schedule: Q01DX011 (sc), vehicle: steriod suspending solution) is 92 % of control; the T/C (dose: 400.0 mg/kg/injection, schedule: Q01DX011 (sc), vehicle: steriod suspending solution) was 87 % of control.
As to `Nc1ncnc(F)c1N`, the T/C (dose: 15.5 mg/kg/injection, schedule: Q01DX011 (ip), vehicle: carboxymethylcellulose (CMC)) was 106 % of control; the T/C under setting [1] is 96 % of control; the T/C under setting [2] is 123 % of control; the T/C (dose: 120.0 mg/kg/injection, schedule: Q01DX011 (ip), vehicle: carboxymethylcellulose (CMC)) was 89 % of control.
In the case of `CCOC(=O)c1cnc(SCc2ccccc2Cl)nc1N1CC1`, the T/C is, setting by setting: (dose: 8.0 mg/kg/injection, schedule: Q01DX011 (ip), vehicle: carboxymethylcellulose (CMC)) 54 % of control; (dose: 8.0 mg/kg/injection, schedule: Q01DX011 (ip), vehicle: other) 110 % of control; (dose: 16.0 mg/kg/injection, schedule: Q01DX011 (ip), vehicle: carboxymethylcellulose (CMC)) 75 % of control; (dose: 16.0 mg/kg/injection, schedule: Q01DX011 (ip), vehicle: other) 70 % of control; (dose: 28.0 mg/kg/injection, schedule: Q01DX011 (ip), vehicle: carboxymethylcellulose (CMC)) 29 % of control; (dose: 28.0 mg/kg/injection, schedule: Q01DX011 (ip), vehicle: other) 62 % of control. For the same compound, the T/C by setting is: (dose: 56.0 mg/kg/injection, schedule: Q01DX011 (ip), vehicle: carboxymethylcellulose (CMC)) 16 % of control; (dose: 56.0 mg/kg/injection, schedule: Q01DX011 (ip), vehicle: other) 22 % of control.
Regarding `Cc1ccc2c(c1)Sc1ccc3ccccc3c1N2`, the T/C (dose: 12.5 mg/kg/injection, schedule: Q01DX011 (ip), vehicle: carboxymethylcellulose (CMC)) was 57 % of control; the T/C (dose: 15.0 mg/kg/injection, schedule: Q01DX011 (ip), vehicle: saline) was 94 % of control; the T/C (dose: 22.0 mg/kg/injection, schedule: Q01DX011 (ip), vehicle: saline) is 42 % of control; the T/C (dose: 25.0 mg/kg/injection, schedule: Q01DX011 (ip), vehicle: carboxymethylcellulose (CMC)) was 27 % of control; the T/C (dose: 33.0 mg/kg/injection, schedule: Q01DX011 (ip), vehicle: saline) is 36 % of control; the T/C (dose: 50.0 mg/kg/injection, schedule: Q01DX011 (ip), vehicle: carboxymethylcellulose (CMC)) is 26 % of control and 42 % of control. For the same compound, the T/C (dose: 50.0 mg/kg/injection, schedule: Q01DX011 (ip), vehicle: saline) was 26 % of control and 51 % of control; the T/C (dose: 62.5 mg/kg/injection, schedule: Q01DX011 (ip), vehicle: carboxymethylcellulose (CMC)) was 58 % of control; the T/C (dose: 75.0 mg/kg/injection, schedule: Q01DX011 (ip), vehicle: carboxymethylcellulose (CMC)) was 37 % of control; the T/C (dose: 75.0 mg/kg/injection, schedule: Q01DX011 (ip), vehicle: saline) is 28 % of control; the T/C (dose: 112.0 mg/kg/injection, schedule: Q01DX011 (ip), vehicle: carboxymethylcellulose (CMC)) was 43 % of control; the T/C (dose: 112.0 mg/kg/injection, schedule: Q01DX011 (ip), vehicle: saline) was 14 % of control. Moreover, the T/C (dose: 168.0 mg/kg/injection, schedule: Q01DX011 (ip), vehicle: carboxymethylcellulose (CMC)) was 18 % of control and 22 % of control; the T/C (dose: 168.0 mg/kg/injection, schedule: Q01DX011 (ip), vehicle: saline) was 14 % of control; the T/C (dose: 335.0 mg/kg/injection, schedule: Q01DX011 (ip), vehicle: carboxymethylcellulose (CMC)) was 10 % of control.
In the case of `S=c1nc[nH]c2nc[nH]c12.[Cd]`, the T/C (dose: 0.4 mg/kg/injection, schedule: Q01DX011 (ip), vehicle: saline) is 38 % of control.
For `CC(=O)Nc1nc(Cl)c2ncn(C3CCCO3)c2n1` (centres undefined), the T/C reads like this: under setting [1], 106 % of control; under setting [2], 38 % of control; (dose: 240.0 mg/kg/injection, schedule: Q01DX011 (ip), vehicle: carboxymethylcellulose (CMC)) 19 % of control and 42 % of control.
For the compound `Cc1cnc(SCc2ccccc2Cl)nc1N(C)C`, the T/C is 89 % of control (dose: 15.0 mg/kg/injection, schedule: Q01DX011 (ip), vehicle: methylcellulose (MC)) and 109 % of control (dose: 125.0 mg/kg/injection, schedule: Q01DX011 (ip), vehicle: methylcellulose (MC)).

Values taken from PubChem BioAssay AID180 (DTP/NCI, 2004).
